Data set [1] addresses T1, wild-type nAChR α7 receptors (Homo sapiens, UniProt P36544).
T1 construct: expressed in transfected cells; host or cells: Xenopus laevis oocytes
Briefly: Positive modulation of acetylcholine-induced nAChR α7 currents in Xenopus laevis oocytes (two-electrode voltage clamp). The format is cell-based. The protocol:
In this example the positive modulation of wild-type nAChR α7 receptors by Compound 4 (i.e. 4-[5-Amino-4-(2,4-dichloro-phenyl)-[1,2,3]triazol-1-ylmethyl]phenol; FIGS. 1A and 1B) was determined using nAChR α7 receptors heterologously expressed in Xenopus laevis oocytes.
The electrical current through the nAChR α7 channel was measured using conventional two-electrode voltage clamp and nAChR α7 currents were activated by applying pulses of agonist-containing solution onto the nAChR α7 expressing oocyte.
In brief, the oocytes were placed in a recording chambers and continuously super-fused with an Oocyte Ringer (OR) solution containing 90 mM NaCl, 2.5 mM KCl, 2.5 mM CaCl2, 1 mM MgCl2 and 5 mM HEPES (pH adjusted to 7.4). The oocytes were clamped at −60 mV and currents were induced by applying 20 s pulses of 100 μM acetylcholine dissolved in OR. The intervals between the acetylcholine applications were 5 minutes, during which the oocytes were washed with OR. The first three applications were control applications to insure a constant response level of 100 μM acetylcholine.
The positive modulation in the presence of Compound 4 was calculated as (test-control)/control*100% and the concentration response curve for this positive modulation was fitted to the sigmoidal logistic equation: I=Imax/(1+(EC50/[compound])^n), where Imax represents the maximal modulation of the control response, EC50 is the concentration causing a half maximal response, and n is the slope coefficient.

T1 sequence (P36544 23-502): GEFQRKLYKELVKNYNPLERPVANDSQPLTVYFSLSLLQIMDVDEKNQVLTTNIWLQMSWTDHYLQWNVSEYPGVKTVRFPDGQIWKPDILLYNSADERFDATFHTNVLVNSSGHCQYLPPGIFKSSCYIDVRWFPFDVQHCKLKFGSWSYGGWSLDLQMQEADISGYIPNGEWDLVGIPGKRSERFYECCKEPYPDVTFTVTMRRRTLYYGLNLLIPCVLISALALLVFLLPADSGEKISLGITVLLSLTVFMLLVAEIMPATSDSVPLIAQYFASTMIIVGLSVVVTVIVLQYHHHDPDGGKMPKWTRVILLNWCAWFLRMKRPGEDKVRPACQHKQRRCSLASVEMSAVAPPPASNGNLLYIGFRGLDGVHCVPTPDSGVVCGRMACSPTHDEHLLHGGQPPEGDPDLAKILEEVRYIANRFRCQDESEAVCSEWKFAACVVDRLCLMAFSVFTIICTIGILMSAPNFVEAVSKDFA

Broadly, the melting point is the temperature, or range, at which the solid turns liquid. For the compound `COc1ccc(Cn2nnc(-c3ccc(Cl)cc3Cl)c2N)cc1` [Compound 1, 5-(2,4-Dichloro-phenyl)-3-(4-methoxy-benzyl)-3H-[1,2,3]triazol-4-ylamine], the melting point fell in the range of 134.4 to 136.8 °C.
In turn, `Nc1c(-c2ccc(Cl)cc2Cl)nnn1Cc1ccc(S(N)(=O)=O)cc1` [Compound 6, 4-[5-Amino-4-(2,4-dichloro-phenyl)-[1,2,3]-triazol-1-ylmethyl]-benzenesulfonamide] returned a melting point of 204 to 205.6 °C.
As a reminder, the EC50 is the midpoint of the concentration-response curve. In turn, `Nc1c(-c2ccc(Cl)cc2Cl)nnn1Cc1ccc(O)cc1` [Compound 4, 4-[5-Amino-4-(2,4-dichloro-phenyl)-[1,2,3]triazol-1-ylmethyl]-phenol] showed a melting point of 172.5 to 174.1 °C. Besides, in data set [1] (100 μM acetylcholine, (test-control)/control*100%, Xenopus laevis oocytes, 0.01-31.6 μM compound), the “Imax, maximal modulation of the acetylcholine response” value worked out at 277%. Further, the EC50 in data set [1] (100 μM acetylcholine, nAChR α7 expressed in Xenopus laevis oocytes, clamped at −60 mV, 0.01-31.6 μM compound, read-out: EC50 for positive modulation of acetylcholine responses) was determined as 1100 nM. For the same compound, the “effect on acetylcholine-induced current amplitude” value in data set [1] (0.01-31.6 μM compound applied 30 s before and during 100 μM acetylcholine) was “robust increase”.
Consider `Nc1c(-c2ccc(C(F)(F)F)cc2F)nnn1Cc1ccc(S(N)(=O)=O)cc1` [Compound 5, 4-[5-Amino-4-(2-fluoro-4-trifluoromethyl-phenyl)-[1,2,3]-triazol-1-ylmethyl]-benzenesulfonamide], for which the melting point was in the range of 180.1 to 181.3 °C.
Consider `Nc1c(-c2ccc(C(F)(F)F)cc2F)nnn1Cc1ccc(O)cc1` [Compound 8, 4-[5-Amino-4-(2-fluoro-4-trifluoromethyl-phenyl)-[1,2,3]-triazol-1-ylmethyl]-phenol], for which the melting point fell in the range of 168.2 to 169.5 °C.
In turn, `COc1ccc(Cn2nnc(-c3ccc(C(F)(F)F)cc3F)c2N)cc1` [Compound 7, 5-(2-Fluoro-4-trifluoromethyl-phenyl)-3-(4-methoxy-benzyl)-3H-[1,2,3]-triazol-4-ylamine] showed a melting point of 153.2 to 154.4 °C.
For the compound `COc1ccc(-c2nnn(Cc3ccc(Cl)cc3Cl)c2N)cc1` [Compound 2, 3-(2,4-Dichloro-benzyl)-5-(4-methoxy-phenyl)-3H-[1,2,3]-triazol-4-ylamine], the melting point fell in the range of 156.5 to 159 °C.

The values above are taken from patent US20110060017A1, “NOVEL 1,2,3-TRIAZOLE DERIVATIVES USEFUL AS MODULATORS OF NICOTINIC ACETYLCHOLINE RECEPTORS” (Neurosearch A/S, priority 2008, published 2011).
